Values of other authors in US9763924B2, “Aminoester derivatives” (CHIESI FARMACEUTICI S.P.A., priority 2014, dated 2017).

System: COPD patients
[1] = patients with severe disease who have frequent exacerbations and mucus hypersecretion

## O=C(Nc1c(Cl)cncc1Cl)c1ccc(OC(F)F)c(OCC2CC2)c1 [roflumilast]
COPD patients, oral, given over 4 weeks
  reduction of the numbers of neutrophils in sputum: 36%
[1]
  improvement of FEV 1: approximately 50 mL
  reduction of exacerbation: about 15%
